Source: patent US11191820B2, “Method for inducing early T memory response with short peptides anti-tumor vaccine” (OSE IMMUNOTHERAPEUTICS, priority 2015, dated 2021)

Experiments:
Format in all cases: in vivo, human
[1] = tested on: central memory T cells; experiment: Cultured IFN-γ ELISPOT after 10-day in vitro stimulation of PBMC, phase 1/2 colon cancer trial of OSE-2101; set-up: key to net SFC of vaccine positive CTL responses: —, indicates SFC response did not meet criteria and vaccine response was negative; details: for Mean SFC: 10 colon patients
Protocol: (§1) Clinical study design. Both trials were designed as phase 1/2, open label, multi-center, single dose, multiple administration studies to evaluate the safety and immunogenicity of the OSE-2101 immunotherapy. Patients were treated with 1 ml OSE-2101 every 3 weeks for a total of six doses. Each dose was administered subcutaneously in the same vicinity in the deltoid or upper thigh region, or at a contralateral site if local side-effects were observed. The study duration for each completed patient was 18 weeks. Clinical responses or patient survival were not measured in either phase 1/2 studies.
(§2) Clinical sample processing. Blood or leukapheresis product was obtained from patients at the pre-treatment, the Week 9 and Week 18 time points, 3 weeks after the third and sixth dose of OSE-2101 respectively. Peripheral blood mononuclear cells (PBMC) were isolated from samples within 24 hours of collection using a FICOLL-PAQUE density gradient and cryopreserved in containers designed to ensure optimal freezing (Mr. Frosty, Nalgene). For use, cells were rapidly thawed at 37° C. then transferred to human AB serum-containing medium for work-up.
(§3) Measurement of central T memory cells responses and T effector memory cells. The CTL responses in 16 total patients (10 colon and six NSCLC) were monitored for CTL responses against each epitope and against the wild-type epitope of epitopes analogs. For each patient, the pre-treatment, Week 9 and Week 18 time points were batch-tested in the same experiment to allow pre- versus post-treatment response comparison in the same experiment. Central T memory cells responses were measured using an IFN-γ enzyme-linked immunospot (cultured ELISPOT) assay following in vitro stimulation of PBMC for 10 days with each vaccine epitope. Briefly, PBMC from each time point were stimulated on day 0 with 10 μg/ml of each epitope individually in replicate in 48-well culture plates (2×10^6 PBMC/well). All cultures were fed with rIL-2 (Endogen, Woburn, Mass.; 10 U/ml final concentration) on days 1, 4 and 7. Ten days after initiation of culture, cells were harvested and tested for activity against specific vaccine peptides and corresponding wild-type peptides of vaccine analogs in the T memory ELISPOT assay. Cells were tested in Millipore IP 96-well plates pre-coated with mouse anti-human IFN-γ antibody (Mabtech USA, Cincinnati, Ohio). Five×10^4 cells and 1.25×10^4 cells from each culture were plated in triplicate wells together with 10^5 irradiated autologous PBMC and 10 μg/ml peptide. As a control, CTL were also tested against an irrelevant HLA-A2.1-binding HBV peptide. After 20 hours incubation, T memory ELISPOT plates were developed by performing sequential incubations with biotinylated anti-human IFN-γ antibody (Mabtech USA), Avidin-Peroxidase Complex (APC, Vector Laboratories, Burlingame, Calif.), and 3-amino-9-ethyl carbazole (AEC) substrate (Sigma Aldrich, St. Louis, Mo.). Spot-forming cells (SFC) were enumerated using a computer-assisted image analysis system (Zeiss KS ELISPOT Reader, Carl Zeiss MicroImaging, Thornwood, N.J.). Data is reported as the net SFC per 5×10^4 cells after subtracting spots induced with the irrelevant HBV peptide.

[2] = tested on: central memory T cells; experiment: Central memory T cell cultured ELISPOT, phase 2 trial in advanced NSCLC
Protocol: CTL Immune responses measured though cultured Elispot. The immunogenicity was measured in Phase 2 clinical trial on cryopreserved PBMC from each test sample were thawed in 5% human culture medium (RPMI-1640 medium with 25 mM HEPES, supplemented with 5% human AB serum, 4 mM L-glutamine, 0.5 mM sodium pyruvate, 0.1 mM MEM non-essential amino acids, 100 μg/ml streptomycin, and 100 U/ml penicillin) containing 30 μg/ml DNAase. After centrifugation for 5 minutes at 1200 rpm, the cell pellets were resuspended in 5% human culture medium and washed 2 times. For the central Memory T cell cultured ELISPOT assay, 2×10^6/ml PBMC were placed in replicate wells in a 48-well plates and stimulated for 10 days with 10 μg/ml of each peptide. As a positive control, PBMC were also stimulated with a pool of recall viral peptides. Human rIL2 (10 U/ml) was added to the peptide-stimulated cultures at day 1, day 4 and day 7. After 10 days the stimulated cells were harvested and plated at a concentration of 5×10^4/well. Assay wells also received irradiated autologous PBMC (1×10^5/well) and 10 μg/ml peptide, either the vaccine peptide, irrelevant peptide or positive control peptides. Cells stimulated in vitro with each analog epitope were also tested against the corresponding wild-type epitope.
Data analysis and acceptance criteria. Mean and standard deviation (SD) of spots in replicate wells were calculated in all assays by transferring raw ELISPOT data from each experiment to an Excel-based computer program. Positive vaccine-induced T-cell responses were determined according to the criteria described below.
Acceptance Criteria for peptide-Induced specific T-cell response through central memory T cells: The positive criteria for CTL responses used in the phase 2 trial was identical to the criteria in the phase 1/2 trials which was established prospectively after analyzing the variability of pre-treatment responses in patients against each vaccine epitope and the irrelevant HBV control epitope. A positive peptide-induced CTL/T memory response to a given epitope met all of the following conditions: 1) was greater than 5 SFC above the irrelevant epitope response, 2) was greater than the mean SFC of the irrelevant epitope response, plus 2 SD, and 3) was two-fold greater than the SFC response in the pre-vaccination sample from the same patient, plus 2 SD. The inclusion of “plus two standard deviations” was used to accommodate the assay variability and served to increase the criteria stringency.

[3] = tested on: central memory T cells; experiment: Cultured IFN-γ ELISPOT after 10-day in vitro stimulation of PBMC, phase 1/2 NSCLC trial of OSE-2101; set-up: key to net SFC of vaccine positive CTL responses: —, indicates SFC response did not meet criteria and vaccine response was negative; details: for Mean SFC / No. Positive Responses: 6 NSCLC patients
Protocol: as §1, §2, §3

Sequence: KLBPVQLWV [p53.139L2B3 A]
- Mean SFC ([1]; Week 9): 70.5 SFC per 50,000 cells
- Mean SFC ([1]; Week 18): 89.4 SFC per 50,000 cells
- net SFC of vaccine positive CTL responses ([1]; colon patient 551, Week 9): —
- net SFC of vaccine positive CTL responses ([1]; colon patient 551, Week 18): —
- net SFC of vaccine positive CTL responses ([1]; colon patient 601, Week 9): 129.0 SFC per 50,000 cells
- net SFC of vaccine positive CTL responses ([1]; colon patient 601, Week 18): 96.0 SFC per 50,000 cells
- net SFC of vaccine positive CTL responses ([1]; colon patient 602, Week 9): —
- net SFC of vaccine positive CTL responses ([1]; colon patient 602, Week 18): 22.7 SFC per 50,000 cells
- net SFC of vaccine positive CTL responses ([1]; colon patient 603, Week 9): 85.3 SFC per 50,000 cells
- net SFC of vaccine positive CTL responses ([1]; colon patient 603, Week 18): —
- net SFC of vaccine positive CTL responses ([1]; colon patient 604, Week 9): 41.0 SFC per 50,000 cells
- net SFC of vaccine positive CTL responses ([1]; colon patient 604, Week 18): 188.7 SFC per 50,000 cells
- net SFC of vaccine positive CTL responses ([1]; colon patient 605, Week 9): 9.7 SFC per 50,000 cells
- net SFC of vaccine positive CTL responses ([1]; colon patient 605, Week 18): 44.7 SFC per 50,000 cells
- net SFC of vaccine positive CTL responses ([1]; colon patient 606, Week 9): 43.7 SFC per 50,000 cells
- net SFC of vaccine positive CTL responses ([1]; colon patient 606, Week 18): 37.7 SFC per 50,000 cells
- net SFC of vaccine positive CTL responses ([1]; colon patient 607, Week 9): 114.3 SFC per 50,000 cells
- net SFC of vaccine positive CTL responses ([1]; colon patient 607, Week 18): 146.7 SFC per 50,000 cells
- net SFC of vaccine positive CTL responses ([1]; colon patient 608, Week 9): —
- net SFC of vaccine positive CTL responses ([1]; colon patient 608, Week 18): —
- net SFC of vaccine positive CTL responses ([1]; colon patient 609, Week 9): —
- net SFC of vaccine positive CTL responses ([1]; colon patient 609, Week 18): —
- % of patients with positive CTL/central memory T cell response ([2]; phase 2, month 9): 29%
- patients with positive CTL/central memory T cell response / patients tested ([2]; phase 2, month 9): 2/7
- % of patients with positive CTL/central memory T cell response ([2]; phase 2, month 12): 50%
- patients with positive CTL/central memory T cell response / patients tested ([2]; phase 2, month 12): 2/4
- % of patients with positive CTL/central memory T cell response ([2]; phase 2, week 9): 55%
- patients with positive CTL/central memory T cell response / patients tested ([2]; phase 2, week 9): 6/11
- % of patients with positive CTL/central memory T cell response ([2]; phase 2, week 18): 36%
- patients with positive CTL/central memory T cell response / patients tested ([2]; phase 2, week 18): 4/11
- % of patients with positive CTL/central memory T cell response ([2]; phase 2, week 30): 50%
- patients with positive CTL/central memory T cell response / patients tested ([2]; phase 2, week 30): 3/6
- Mean SFC ([3]; Week 9): 25.9 SFC per 50,000 cells
- No. Positive Responses ([3]; Week 9): 3
- Mean SFC ([3]; Week 18): 62.0 SFC per 50,000 cells
- No. Positive Responses ([3]; Week 18): 4
- net SFC of vaccine positive CTL responses ([3]; NSCLC patient 201, Week 9): —
- net SFC of vaccine positive CTL responses ([3]; NSCLC patient 201, Week 18): —
- net SFC of vaccine positive CTL responses ([3]; NSCLC patient 502, Week 9): —
- net SFC of vaccine positive CTL responses ([3]; NSCLC patient 502, Week 18): —
- net SFC of vaccine positive CTL responses ([3]; NSCLC patient 504, Week 9): 18.7 SFC per 50,000 cells
- net SFC of vaccine positive CTL responses ([3]; NSCLC patient 504, Week 18): 90.3 SFC per 50,000 cells
- net SFC of vaccine positive CTL responses ([3]; NSCLC patient 505, Week 9): —
- net SFC of vaccine positive CTL responses ([3]; NSCLC patient 505, Week 18): 20.3 SFC per 50,000 cells
- net SFC of vaccine positive CTL responses ([3]; NSCLC patient 532, Week 9): 53.0 SFC per 50,000 cells
- net SFC of vaccine positive CTL responses ([3]; NSCLC patient 532, Week 18): 117.3 SFC per 50,000 cells
- net SFC of vaccine positive CTL responses ([3]; NSCLC patient 651, Week 9): 6.0 SFC per 50,000 cells
- net SFC of vaccine positive CTL responses ([3]; NSCLC patient 651, Week 18): 20.0 SFC per 50,000 cells

Sequence: RLLQETELV [HER2-689-WT]
- % of patients with positive CTL/central memory T cell response ([2]; phase 2, month 9): 0%
- patients with positive CTL/central memory T cell response / patients tested ([2]; phase 2, month 9): 0/7
- % of patients with positive CTL/central memory T cell response ([2]; phase 2, month 12): 0%
- patients with positive CTL/central memory T cell response / patients tested ([2]; phase 2, month 12): 0/4
- % of patients with positive CTL/central memory T cell response ([2]; phase 2, week 9): 36%
- patients with positive CTL/central memory T cell response / patients tested ([2]; phase 2, week 9): 4/11
- % of patients with positive CTL/central memory T cell response ([2]; phase 2, week 18): 27%
- patients with positive CTL/central memory T cell response / patients tested ([2]; phase 2, week 18): 3/11
- % of patients with positive CTL/central memory T cell response ([2]; phase 2, week 30): 0%
- patients with positive CTL/central memory T cell response / patients tested ([2]; phase 2, week 30): 0/6
